{
  "source": "ChEMBL document CHEMBL3774360",
  "about": "“Potent multitarget FAAH-COX inhibitors: Design and structure-activity relationship studies” (Eur J Med Chem, 2016)",
  "key": {"[1]": {"organism": "Homo sapiens", "assay": "Binding affinity to P2X receptor (unknown origin) at 10 uM by radioligand binding assay"}, "[2]": {"target": "Estrogen receptor (Homo sapiens) (UniProt P03372)", "sequence (P03372 whole entry)": "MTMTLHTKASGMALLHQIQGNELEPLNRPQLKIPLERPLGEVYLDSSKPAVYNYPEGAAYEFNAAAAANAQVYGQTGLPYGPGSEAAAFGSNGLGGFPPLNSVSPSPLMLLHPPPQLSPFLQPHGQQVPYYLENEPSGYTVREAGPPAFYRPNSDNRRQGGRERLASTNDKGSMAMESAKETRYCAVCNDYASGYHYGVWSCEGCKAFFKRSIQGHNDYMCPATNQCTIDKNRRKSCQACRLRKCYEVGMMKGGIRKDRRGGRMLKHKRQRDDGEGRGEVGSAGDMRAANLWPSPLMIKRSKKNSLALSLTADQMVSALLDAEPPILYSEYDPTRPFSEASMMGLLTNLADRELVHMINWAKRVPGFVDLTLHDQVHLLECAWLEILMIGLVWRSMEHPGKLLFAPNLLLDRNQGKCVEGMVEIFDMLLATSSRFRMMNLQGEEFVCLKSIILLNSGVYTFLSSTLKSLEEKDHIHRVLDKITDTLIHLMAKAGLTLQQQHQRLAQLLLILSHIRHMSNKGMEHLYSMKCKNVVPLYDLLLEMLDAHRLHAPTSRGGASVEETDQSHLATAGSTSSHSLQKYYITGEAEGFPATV", "assay": "Binding affinity to human estrogen receptor at 10 uM by radioligand binding assay"}, "[3]": {"target": "Androgen receptor (Homo sapiens) (UniProt P10275)", "assay": "Binding affinity to human androgen receptor at 10 uM by radioligand binding assay"}, "[4]": {"target": "Prostacyclin receptor (Homo sapiens) (UniProt P43119)", "assay": "Binding affinity to human IP receptor at 10 uM by radioligand binding assay"}, "[5]": {"target": "Corticotropin-releasing factor receptor 1 (Homo sapiens) (UniProt P34998)", "assay": "Binding affinity to human CRF1 receptor at 10 uM by radioligand binding assay"}, "[6]": {"target": "D(4) dopamine receptor (Homo sapiens) (UniProt P21917)", "assay": "Binding affinity to human dopamine D4.4 receptor at 10 uM by radioligand binding assay"}, "[7]": {"target": "Nitric oxide synthase, inducible (Homo sapiens) (UniProt P35228)", "assay": "Binding affinity to inducible NOS (unknown origin) at 10 uM"}, "[8]": {"target": "Acetylcholinesterase (Homo sapiens) (UniProt P22303)", "sequence (P22303 whole entry)": "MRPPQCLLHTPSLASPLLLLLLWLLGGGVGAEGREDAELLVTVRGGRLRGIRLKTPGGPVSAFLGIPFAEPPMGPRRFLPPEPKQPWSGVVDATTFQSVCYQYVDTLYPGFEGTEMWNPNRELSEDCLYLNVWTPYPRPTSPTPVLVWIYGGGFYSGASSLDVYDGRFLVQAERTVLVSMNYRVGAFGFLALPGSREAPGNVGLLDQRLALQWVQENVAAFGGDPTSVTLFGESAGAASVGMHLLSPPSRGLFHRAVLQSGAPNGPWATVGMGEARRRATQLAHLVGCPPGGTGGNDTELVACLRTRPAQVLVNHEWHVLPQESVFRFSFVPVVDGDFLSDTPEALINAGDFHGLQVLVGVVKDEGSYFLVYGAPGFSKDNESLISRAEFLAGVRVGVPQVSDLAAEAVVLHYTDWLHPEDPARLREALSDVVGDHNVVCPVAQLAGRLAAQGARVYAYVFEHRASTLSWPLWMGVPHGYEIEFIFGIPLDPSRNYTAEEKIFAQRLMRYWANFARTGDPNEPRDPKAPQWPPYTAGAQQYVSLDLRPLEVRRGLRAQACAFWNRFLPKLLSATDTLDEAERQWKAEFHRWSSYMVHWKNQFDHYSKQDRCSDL", "assay": "Binding affinity to human acetylcholinesterase at 10 uM"}, "[9]": {"organism": "Homo sapiens", "assay": "Binding affinity to human muscarinic receptor at 10 uM by radioligand binding assay"}, "[10]": {"target": "Polyunsaturated fatty acid lipoxygenase ALOX15B (Homo sapiens) (UniProt O15296)", "assay": "Binding affinity to recombinant human 15-Lipoxygenase-2 at 10 uM"}, "[11]": {"target": "Histamine H1 receptor (Homo sapiens) (UniProt P35367)", "assay": "Binding affinity to human histamine H1 receptor at 10 uM by radioligand binding assay"}, "[12]": {"target": "Transient receptor potential cation channel subfamily V member 1 (Homo sapiens) (UniProt Q8NER1)", "sequence (Q8NER1 whole entry)": "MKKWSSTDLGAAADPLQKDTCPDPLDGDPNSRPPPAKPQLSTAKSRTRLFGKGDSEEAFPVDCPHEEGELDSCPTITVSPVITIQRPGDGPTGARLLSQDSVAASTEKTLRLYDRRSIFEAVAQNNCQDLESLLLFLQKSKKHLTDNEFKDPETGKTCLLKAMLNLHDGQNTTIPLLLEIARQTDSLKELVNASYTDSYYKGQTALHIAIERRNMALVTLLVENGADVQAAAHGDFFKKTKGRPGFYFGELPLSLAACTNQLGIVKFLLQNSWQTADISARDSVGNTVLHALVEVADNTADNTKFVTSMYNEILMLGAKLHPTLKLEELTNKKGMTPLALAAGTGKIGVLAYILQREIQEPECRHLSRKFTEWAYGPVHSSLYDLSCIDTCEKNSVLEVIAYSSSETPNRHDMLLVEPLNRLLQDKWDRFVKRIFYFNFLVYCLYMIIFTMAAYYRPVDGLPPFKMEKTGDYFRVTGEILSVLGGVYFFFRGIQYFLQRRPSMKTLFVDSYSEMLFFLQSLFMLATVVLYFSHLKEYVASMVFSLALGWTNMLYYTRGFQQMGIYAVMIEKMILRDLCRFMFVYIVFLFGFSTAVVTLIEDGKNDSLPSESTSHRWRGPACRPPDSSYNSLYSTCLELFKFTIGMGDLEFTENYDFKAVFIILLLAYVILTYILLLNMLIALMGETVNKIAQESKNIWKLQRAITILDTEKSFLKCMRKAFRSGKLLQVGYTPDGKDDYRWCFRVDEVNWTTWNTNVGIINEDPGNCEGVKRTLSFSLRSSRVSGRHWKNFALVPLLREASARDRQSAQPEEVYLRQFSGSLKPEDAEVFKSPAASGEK", "assay": "Agonist activity against human TRPV1 receptor at 10 uM"}, "[13]": {"target": "Cysteinyl leukotriene receptor 1 (Homo sapiens) (UniProt Q9Y271)", "assay": "Binding affinity to human cysteinyl leukotriene receptor 1 at 10 uM by radioligand binding assay"}, "[14]": {"target": "Sodium-dependent dopamine transporter (Homo sapiens) (UniProt Q01959)", "sequence (Q01959 whole entry)": "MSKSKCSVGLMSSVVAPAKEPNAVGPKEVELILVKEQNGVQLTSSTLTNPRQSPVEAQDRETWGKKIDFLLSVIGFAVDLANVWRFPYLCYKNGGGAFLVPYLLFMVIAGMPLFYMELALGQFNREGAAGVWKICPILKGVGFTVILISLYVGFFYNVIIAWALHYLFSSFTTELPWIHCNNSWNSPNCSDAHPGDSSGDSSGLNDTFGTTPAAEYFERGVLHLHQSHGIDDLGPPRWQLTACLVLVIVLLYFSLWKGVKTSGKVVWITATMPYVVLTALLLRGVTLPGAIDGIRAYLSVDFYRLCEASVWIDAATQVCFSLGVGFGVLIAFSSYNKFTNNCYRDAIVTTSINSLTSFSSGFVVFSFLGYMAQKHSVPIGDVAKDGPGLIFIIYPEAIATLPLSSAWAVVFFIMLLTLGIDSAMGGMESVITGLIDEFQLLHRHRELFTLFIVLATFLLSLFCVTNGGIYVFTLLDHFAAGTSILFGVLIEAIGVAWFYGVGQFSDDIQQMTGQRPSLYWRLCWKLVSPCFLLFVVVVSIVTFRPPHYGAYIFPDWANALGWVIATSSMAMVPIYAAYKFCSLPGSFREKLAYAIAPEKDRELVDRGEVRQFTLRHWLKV", "assay": "Binding affinity to human dopamine transporter at 10 uM by radioligand binding assay"}, "[15]": {"organism": "Homo sapiens", "assay": "Binding affinity to GABA transporter (unknown origin) at 10 uM by radioligand binding assay"}, "[16]": {"target": "Transient receptor potential cation channel subfamily V member 1 (Homo sapiens) (UniProt Q8NER1)", "assay": "Antagonist activity against human TRPV1 receptor at 10 uM", "parameters": "scale not given: the % may be the effect or the level left"}, "[17]": {"organism": "Homo sapiens", "assay": "Binding affinity to AMPA receptor (unknown origin) at 10 uM by radioligand binding assay"}, "[18]": {"target": "Adenosine receptor A1 (Homo sapiens) (UniProt P30542)", "assay": "Binding affinity to human adenosine A1 receptor at 10 uM by radioligand binding assay"}, "[19]": {"target": "Type-1 angiotensin II receptor (Homo sapiens) (UniProt P30556)", "assay": "Binding affinity to human angiotensin receptor 1 at 10 uM by radioligand binding assay"}, "[20]": {"target": "Protein kinase C alpha type (Homo sapiens) (UniProt P17252)", "assay": "Binding affinity to human PKC-alpha at 10 uM"}, "[21]": {"tested_on": "Mus musculus", "assay": "In-vivo inhibition of FAAH in mouse plasma assessed as increase in OEA level at 1 mg/kg, iv after 1 hr by LC-MS/MS analysis", "format": "functional, organism-based"}, "[22]": {"target": "Beta-2 adrenergic receptor (Homo sapiens) (UniProt P07550)", "assay": "Binding affinity to beta-2 adrenergic receptor (unknown origin) at 10 uM by radioligand binding assay"}, "[23]": {"organism": "Homo sapiens", "assay": "Binding affinity to L-type calcium channel verapamil binding site (unknown origin) at 10 uM by radioligand binding assay"}, "[24]": {"organism": "Homo sapiens", "assay": "Binding affinity to L-type calcium channel diltiazem binding site (unknown origin) at 10 uM by radioligand binding assay"}, "[25]": {"organism": "Homo sapiens", "assay": "Binding affinity to I2 imidazoline binding site (unknown origin) at 10 uM by radioligand binding assay"}, "[26]": {"organism": "Homo sapiens", "assay": "Binding affinity to human sigma receptor at 10 uM by radioligand binding assay"}, "[27]": {"target": "cGMP-specific 3',5'-cyclic phosphodiesterase (Homo sapiens) (UniProt O76074)", "assay": "Binding affinity to human PDE5 at 10 uM"}, "[28]": {"target": "Nociceptin receptor (Homo sapiens) (UniProt P41146)", "sequence (P41146 whole entry)": "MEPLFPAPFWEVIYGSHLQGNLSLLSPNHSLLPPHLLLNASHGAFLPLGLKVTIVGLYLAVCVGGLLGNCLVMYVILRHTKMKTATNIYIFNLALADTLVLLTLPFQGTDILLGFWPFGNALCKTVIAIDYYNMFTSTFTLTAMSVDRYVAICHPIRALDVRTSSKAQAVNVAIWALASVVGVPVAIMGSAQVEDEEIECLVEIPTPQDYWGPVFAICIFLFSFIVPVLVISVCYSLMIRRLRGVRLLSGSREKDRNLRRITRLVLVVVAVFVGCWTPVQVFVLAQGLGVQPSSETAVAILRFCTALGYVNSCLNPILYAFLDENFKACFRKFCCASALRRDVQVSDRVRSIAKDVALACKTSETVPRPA", "assay": "Binding affinity to human NOP receptor at 10 uM by radioligand binding assay"}, "[29]": {"organism": "Homo sapiens", "assay": "Binding affinity to central-type benzodiazepine receptor (unknown origin) at 10 uM by radioligand binding assay"}, "[30]": {"target": "Vasopressin V1a receptor (Homo sapiens) (UniProt P37288)", "assay": "Binding affinity to human V1a receptor at 10 uM by radioligand binding assay"}, "[31]": {"target": "Amine oxidase [flavin-containing] A (Homo sapiens, UniProt P21397)", "sequence (P21397 whole entry)": "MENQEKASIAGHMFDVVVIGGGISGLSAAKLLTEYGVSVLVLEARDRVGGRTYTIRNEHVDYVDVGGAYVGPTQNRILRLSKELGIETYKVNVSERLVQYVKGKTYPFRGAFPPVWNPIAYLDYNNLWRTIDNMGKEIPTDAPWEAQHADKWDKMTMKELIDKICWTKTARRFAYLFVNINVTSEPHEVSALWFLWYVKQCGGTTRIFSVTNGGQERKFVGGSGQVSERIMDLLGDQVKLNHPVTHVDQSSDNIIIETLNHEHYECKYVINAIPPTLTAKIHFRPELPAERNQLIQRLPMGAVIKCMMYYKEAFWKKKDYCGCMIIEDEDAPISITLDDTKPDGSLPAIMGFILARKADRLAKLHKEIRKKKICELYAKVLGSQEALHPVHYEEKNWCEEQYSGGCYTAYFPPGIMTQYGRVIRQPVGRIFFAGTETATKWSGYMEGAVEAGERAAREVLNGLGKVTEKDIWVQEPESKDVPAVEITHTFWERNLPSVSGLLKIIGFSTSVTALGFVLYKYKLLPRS", "assay": "Binding affinity to human MAO-A at 10 uM"}, "[32]": {"target": "Protein deacetylase HDAC6 (Homo sapiens) (UniProt Q9UBN7)", "assay": "Binding affinity to human HDAC6 at 10 uM"}, "[33]": {"organism": "Homo sapiens", "assay": "Binding affinity to sodium channel site 2 (unknown origin) at 10 uM by radioligand binding assay"}, "[34]": {"target": "Prostaglandin E2 receptor EP1 subtype (Homo sapiens) (UniProt P34995)", "sequence (P34995 whole entry)": "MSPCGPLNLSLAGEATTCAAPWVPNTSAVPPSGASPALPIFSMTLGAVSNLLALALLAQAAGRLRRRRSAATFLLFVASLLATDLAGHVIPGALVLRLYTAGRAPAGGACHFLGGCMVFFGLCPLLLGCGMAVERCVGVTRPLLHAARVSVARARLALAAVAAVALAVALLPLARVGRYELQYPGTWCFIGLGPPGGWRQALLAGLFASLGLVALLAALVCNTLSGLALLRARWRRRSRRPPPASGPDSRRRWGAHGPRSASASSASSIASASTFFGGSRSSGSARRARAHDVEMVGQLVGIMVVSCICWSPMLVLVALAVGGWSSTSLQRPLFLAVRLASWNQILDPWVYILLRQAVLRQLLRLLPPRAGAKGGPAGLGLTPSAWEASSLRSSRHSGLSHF", "assay": "Binding affinity to human EP1 receptor at 10 uM by radioligand binding assay"}, "[35]": {"target": "Prostaglandin E2 receptor EP3 subtype (Homo sapiens) (UniProt P43115)", "sequence (P43115 whole entry)": "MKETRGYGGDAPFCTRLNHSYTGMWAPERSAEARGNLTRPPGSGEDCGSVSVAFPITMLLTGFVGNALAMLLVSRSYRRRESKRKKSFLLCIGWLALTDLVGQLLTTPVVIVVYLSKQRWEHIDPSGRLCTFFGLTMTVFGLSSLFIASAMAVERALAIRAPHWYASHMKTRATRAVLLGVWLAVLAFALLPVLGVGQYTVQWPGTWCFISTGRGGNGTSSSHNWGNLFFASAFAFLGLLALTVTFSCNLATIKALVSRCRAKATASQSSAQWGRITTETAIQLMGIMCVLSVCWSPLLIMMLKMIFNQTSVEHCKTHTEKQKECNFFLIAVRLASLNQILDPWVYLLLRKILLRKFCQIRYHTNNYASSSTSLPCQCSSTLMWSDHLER", "assay": "Binding affinity to human EP3 receptor at 10 uM by radioligand binding assay"}, "[36]": {"organism": "Homo sapiens", "assay": "Binding affinity to PCP receptor (unknown origin) at 10 uM by radioligand binding assay"}, "[37]": {"target": "Prostaglandin E2 receptor EP4 subtype (Homo sapiens) (UniProt P35408)", "assay": "Binding affinity to human EP4 receptor at 10 uM by radioligand binding assay"}, "[38]": {"tested_on": "Mus musculus", "assay": "In-vivo inhibition of COX in mouse plasma assessed as decrease in 6-keto-PGF1-alpha level at 1 mg/kg, iv after 1 hr by LC-MS/MS analysis", "format": "functional, organism-based"}, "[39]": {"organism": "Homo sapiens", "assay": "Binding affinity to 5-HT1 receptor (unknown origin) at 10 uM"}, "[40]": {"target": "Substance-K receptor (Homo sapiens) (UniProt P21452)", "assay": "Binding affinity to human NK2 receptor at 10 uM by radioligand binding assay"}, "[41]": {"target": "Cholecystokinin receptor type A (Homo sapiens) (UniProt P32238)", "sequence (P32238 whole entry)": "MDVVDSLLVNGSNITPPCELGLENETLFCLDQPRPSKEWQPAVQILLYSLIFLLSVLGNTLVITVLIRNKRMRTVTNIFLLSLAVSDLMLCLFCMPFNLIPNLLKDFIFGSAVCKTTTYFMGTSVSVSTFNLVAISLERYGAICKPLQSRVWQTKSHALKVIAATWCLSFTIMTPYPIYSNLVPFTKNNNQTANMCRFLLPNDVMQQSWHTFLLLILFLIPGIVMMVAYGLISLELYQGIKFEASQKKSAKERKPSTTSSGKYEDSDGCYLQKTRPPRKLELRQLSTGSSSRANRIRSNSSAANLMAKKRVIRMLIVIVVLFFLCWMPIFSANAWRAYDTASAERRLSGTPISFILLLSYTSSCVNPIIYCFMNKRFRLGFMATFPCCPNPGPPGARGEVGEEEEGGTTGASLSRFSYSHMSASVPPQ", "assay": "Binding affinity to human cholecystokinin receptor type A at 10 uM by radioligand binding assay"}, "[42]": {"organism": "Homo sapiens", "assay": "Activation of human guanylyl cyclase at 10 uM"}, "[43]": {"organism": "Homo sapiens", "assay": "Binding affinity to neuropeptide Y receptor (unknown origin) at 10 uM by radioligand binding assay"}, "[44]": {"organism": "Homo sapiens", "assay": "Binding affinity to L-type calcium channel dihydropyridine binding site (unknown origin) at 10 uM by radioligand binding assay"}, "[45]": {"target": "Histamine H2 receptor (Homo sapiens) (UniProt P25021)", "assay": "Binding affinity to human histamine H2 receptor at 10 uM by radioligand binding assay"}, "[46]": {"target": "Amine oxidase [flavin-containing] B (Homo sapiens, UniProt P27338)", "assay": "Binding affinity to recombinant human MAO-B at 10 uM"}, "[47]": {"target": "Melatonin receptor type 1A (Homo sapiens) (UniProt P48039)", "assay": "Binding affinity to human melatonin receptor type 1 at 10 uM by radioligand binding assay"}},
  "note": "Activity calls are given as the source filed them. The calls are words filed in the database; no cut-off is given here.",
  "data": [
    {"smiles": "CCCCCCNC(=O)Oc1cccc(-c2ccc([C@H](C)C(=O)O)cc2F)c1", "values": [
      {"measurement": "Activity", "setting": "[1]", "result": -8.1, "unit": "%"},
      {"measurement": "Activity", "setting": "[2]", "result": -10.5, "unit": "%"},
      {"measurement": "Activity", "setting": "[3]", "result": 3.7, "unit": "%"},
      {"measurement": "Activity", "setting": "[4]", "result": 13.7, "unit": "%"},
      {"measurement": "Activity", "setting": "[5]", "result": 11.9, "unit": "%"},
      {"measurement": "Activity", "setting": "[6]", "result": -4.4, "unit": "%"},
      {"measurement": "Activity", "setting": "[7]", "result": -5.8, "unit": "%"},
      {"measurement": "Activity", "setting": "[8]", "result": -4.8, "unit": "%"},
      {"measurement": "Activity", "setting": "[9]", "result": 5, "unit": "%"},
      {"measurement": "Activity", "setting": "[10]", "result": -6.4, "unit": "%"},
      {"measurement": "Activity", "setting": "[11]", "result": 1.8, "unit": "%"},
      {"measurement": "Activity", "setting": "[12]", "result": -3.2, "unit": "%"},
      {"measurement": "Activity", "setting": "[13]", "result": 0, "unit": "%"},
      {"measurement": "Activity", "setting": "[14]", "result": 13.5, "unit": "%"},
      {"measurement": "Activity", "setting": "[15]", "result": -3.3, "unit": "%"},
      {"measurement": "Activity", "setting": "[16]", "result": 17.9, "unit": "%"},
      {"measurement": "Activity", "setting": "[17]", "result": -4.6, "unit": "%"},
      {"measurement": "Activity", "setting": "[18]", "result": -8, "unit": "%"},
      {"measurement": "Activity", "setting": "[19]", "result": -3.4, "unit": "%"},
      {"measurement": "Activity", "setting": "[20]", "result": -26.1, "unit": "%"},
      {"measurement": "inhibition", "setting": "[21]", "result": "Active"},
      {"measurement": "Activity", "setting": "[22]", "result": -7.5, "unit": "%"},
      {"measurement": "Activity", "setting": "[23]", "result": -7.7, "unit": "%"},
      {"measurement": "Activity", "setting": "[24]", "result": -19.5, "unit": "%"},
      {"measurement": "Activity", "setting": "[25]", "result": -1.8, "unit": "%"},
      {"measurement": "Activity", "setting": "[26]", "result": -6.9, "unit": "%"},
      {"measurement": "Activity", "setting": "[27]", "result": -21.9, "unit": "%"},
      {"measurement": "Activity", "setting": "[28]", "result": -1.7, "unit": "%"},
      {"measurement": "Activity", "setting": "[29]", "result": -51.5, "unit": "%"},
      {"measurement": "Activity", "setting": "[30]", "result": 0.4, "unit": "%"},
      {"measurement": "Activity", "setting": "[31]", "result": -11.2, "unit": "%"},
      {"measurement": "Activity", "setting": "[32]", "result": -10.6, "unit": "%"},
      {"measurement": "Activity", "setting": "[33]", "result": -0.5, "unit": "%"},
      {"measurement": "Activity", "setting": "[34]", "result": -8.8, "unit": "%"},
      {"measurement": "Activity", "setting": "[35]", "result": 10.9, "unit": "%"},
      {"measurement": "Activity", "setting": "[36]", "result": -10.7, "unit": "%"},
      {"measurement": "Activity", "setting": "[37]", "result": 18.7, "unit": "%"},
      {"measurement": "inhibition", "setting": "[38]", "result": "Active"},
      {"measurement": "Activity", "setting": "[39]", "result": 7.8, "unit": "%"},
      {"measurement": "Activity", "setting": "[40]", "result": -1.6, "unit": "%"},
      {"measurement": "Activity", "setting": "[41]", "result": 10.8, "unit": "%"},
      {"measurement": "Activity", "setting": "[42]", "result": 6.7, "unit": "%"},
      {"measurement": "Activity", "setting": "[43]", "result": -2.7, "unit": "%"},
      {"measurement": "Activity", "setting": "[44]", "result": -19.3, "unit": "%"},
      {"measurement": "Activity", "setting": "[45]", "result": -0.4, "unit": "%"},
      {"measurement": "Activity", "setting": "[46]", "result": -15.4, "unit": "%"},
      {"measurement": "Activity", "setting": "[47]", "result": -9.9, "unit": "%"}
    ]}
  ]
}
